Measurements from US20120094995A1, “2-AZA-BICYCLO[2.2.1]HEPTANE COMPOUNDS AND USES THEREOF” (ASTRAZENECA AB, priority 2009, published 2012).

biological target: T1, human GlyT1b (Homo sapiens, UniProt P48067); assay: [3H] Glycine Uptake Assay (SPA) in recombinant hGlyT1b-CHO cells; assay type: cell-based; settings: Table 1
T1 construct: expressed in transfected cells
T1 sequence (P48067 1-652 isoform P48067-3): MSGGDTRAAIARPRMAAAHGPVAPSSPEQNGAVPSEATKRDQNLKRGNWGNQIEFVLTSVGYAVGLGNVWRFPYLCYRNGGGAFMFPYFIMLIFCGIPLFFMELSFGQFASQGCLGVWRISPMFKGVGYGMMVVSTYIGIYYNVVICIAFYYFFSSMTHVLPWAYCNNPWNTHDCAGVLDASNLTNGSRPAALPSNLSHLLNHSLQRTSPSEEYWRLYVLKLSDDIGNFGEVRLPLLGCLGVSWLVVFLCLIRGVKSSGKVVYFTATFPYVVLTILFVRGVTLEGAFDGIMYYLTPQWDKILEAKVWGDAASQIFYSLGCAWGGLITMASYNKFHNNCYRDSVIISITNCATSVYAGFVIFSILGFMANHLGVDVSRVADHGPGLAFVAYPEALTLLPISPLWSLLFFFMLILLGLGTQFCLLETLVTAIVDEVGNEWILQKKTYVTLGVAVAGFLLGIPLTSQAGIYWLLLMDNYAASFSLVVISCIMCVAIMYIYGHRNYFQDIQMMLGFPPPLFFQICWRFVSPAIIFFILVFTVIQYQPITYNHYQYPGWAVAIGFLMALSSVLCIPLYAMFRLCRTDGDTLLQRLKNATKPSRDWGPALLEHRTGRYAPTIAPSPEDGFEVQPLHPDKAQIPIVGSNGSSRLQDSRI
Experimental: A. [3H] Glycine Uptake Assay
Preparation of recombinant human GlyT1b-CHO cells (hGlyT1b-CHO). The human GlyT1b CDS (GC002087, NM_006934) was cloned downstream of a CMV promoter in a bicistronic expression vector containing a hygromycin B resistance gene. CHO-K1 cells (ATCC) were transfected with the recombinant vector containing GlyT1b using Lipofectamine 2000 (Invitrogen) and cultured in Ham's/F12 media supplemented with 10% fetal bovine serum, 2 mM L-glutamine at 37° C., 5% CO2, 90% humidity. Twenty-four hours after transfection, cells were diluted and switched to media containing 0.5 mg/ml hygromycin B. Antibiotic resistant cells were obtained after 21 days of culture in the presence of hygromycin B. Clonal stable cell lines were isolated by FACS single cell deposition into 96-well plates.
Cells used were Recombinant hGlyT1b/CHO. These cells were cultured in cell culture medium (Ham's/F12 (Modified) (Mediatech, 10-080-CM), containing 10% FBS, 2 mM L-glutamine (Invitrogen 25030-149) and 0.5 mg/mL hygromycin B (Invitrogen, 10687-010)) in 175 cm^2 flasks until near confluence before use in the assay.
Cell medium in a cell culture flask containing near confluent cells was removed and 5 mL of cell stripper was added to submerge all cells on the surface of the culture flask. Cell stripper was removed immediately and the flask incubated in a 37° C. incubator for ˜5 min. Cells were shaken loose and suspended in 5 mL of PBS. After splitting cells to initiate a new flask(s), the cells remaining were collected by centrifugation, counted, and resuspended in assay buffer to a density of ˜2 million/mL. The cell suspension was kept at room temperature before use. The assays buffer was 10 mM HEPES, pH 7.4, containing 150 mM NaCl, 5 mM KCl, 1.5 mM CaCl2, 1.5 mM MgCl2, 0.45 mg/mL L-alanine (added fresh), and 1.8 mg/mL D-glucose (added fresh).
WGA PTV beads were suspended in assay buffer (2 mg/ml) containing 60 nM [^3H]Glycine (PerkinElmer (NET-004, [2-^3H]Glycine, 53.3 Ci/mmol, 1 mCi/mL)) and 20 μM unlabeled glycine and the suspension was kept at room temperature before assay.
To the wells of an OptiPlate, 2 μl DMSO containing a test compound was spotted. This was followed by addition of 98 μl of cell suspension (˜1 million/ml final). After incubating cells with compound for ˜15 min, 100 μl of the SPA (200 μg/well final) and isotope mixture (30 nM isotope with 10 μM cold glycine, final) was added to initiate the glycine uptake. At 2 h, the plate was read on a TopCount to quantify SPA counts.

Q: `CSc1ncccc1C(=O)NC(c1ccccc1)C12CCC(CC1)N2C` (single isomer, unassigned) [Example 2, (R*)—N-((7-methyl-7-azabicyclo[2.2.1]heptan-1-y)(phenyl)methyl)-2-(methylthio)nicotinamide] was tested. Which IC50 did it give?
A: 168 nM

Q: `COCCN1C2CCC1(C(NC(=O)c1c(C)cccc1C)c1ccncc1)CC2` (single isomer, unassigned) [Example 6, (R*)—N-((7-(2-methoxyethyl)-7-azabicyclo[2.2.1]heptan-1-yl)(pyridin-4-yl)methyl)-2,6-dimethylbenzamide] was tested. Which IC50 did it give?
A: 26 nM

Q: With `Cc1cccc(F)c1C(=O)NC(c1ccccc1)C12CCC(CC1)N2C` (single isomer, unassigned) [Example 7, 2-fluoro-6-methyl-N-((7-methyl-7-azabicyclo[2.2.1]heptan-1-yl)(phenyl)methyl)benzamide] as the molecule, how does the IC50 read?
A: 62 nM

Q: For `CN1C2CCC1(C(NC(=O)c1cccc(Cl)c1Cl)c1ccccc1)CC2` (single isomer, unassigned) [Example 13, (R*)-2,3-dichloro-N-((7-methyl-7-azabicyclo[2.2.1]heptan-1-yl)(phenyl)methyl)benzamide], which IC50 is on record?
A: 72 nM

Q: `CN1C2CCC1([C@H](NC(=O)c1ccc(Cl)cc1Cl)c1ccccc1)CC2` (single isomer, unassigned) [Example 14, (R*)-2,4-dichloro-N((7-methy1-7-azabicyclo[2.2.1]heptan-1-yl)(phenyl)methyl)benzamide] was tested. Which IC50 did it give?
A: 305 nM

Q: `CN1C2CCC1(C(NC(=O)c1ccnc(Cl)c1Cl)c1ccccc1)CC2` (single isomer, unassigned) [Example 15, (R*)-2,3-dichloro-N-((7-methyl-7-azabicyclo[2.2.1]heptan-1-yl)(phenyl)methyl)isonicotinamide] was tested. Which IC50 did it give?
A: 210 nM

Q: Which IC50 does the source give for `Cc1cccc(C)c1C(=O)NC(c1cccc(Br)c1)C12CCC(CC1)N2C` (centres unmarked) [Example 8, N-((3-bromophenyl)(7-methyl-7-azabicyclo[2.2.1]heptan-1-yl)methyl)-2,6-dimethylbenzamide] here?
A: 3 nM

Q: How did the IC50 turn out when `Cc1ccc(C(NC(=O)c2c(C)cccc2C)C23CCC(CC2)N3C)o1` (centres unmarked) [Example 9, 2,6-dimethyl-N-((7-methyl-7-azabicyclo[2.2.1]heptan-1-yl)(5-methylfuran-2-yl)methyl)benzamide] was run?
A: 98 nM

Q: For `CSc1ncccc1C(=O)NC(c1ccccc1)C12CCC(CC1)N2C` (centres unmarked) [Example 10, N-((7-methyl-7-azabicyclo[2.2.1]heptan-1-yl)(phenyl)methyl)-2-(methylthio)nicotinamide], which IC50 is on record?
A: 145 nM

Q: For `COc1cccc(OC)c1C(=O)NC(c1ccccc1)C12CCC(CC1)N2C` (centres unmarked) [Example 11, 2,6-dimethoxy-N-((7-methyl-7-azabicyclo[2.2.1]heptan-1-yl)(phenyl)methyl)benzamide], which IC50 is on record?
A: 349 nM

Q: For `CN1C2CCC1(C(NC(=O)c1cccc(Cl)c1Cl)c1ccccc1)CC2` (centres unmarked) [Example 12, 2,3-dichloro-N-((7-methyl-7-azabicyclo[2.2.1]heptan-1-yl)(phenyl)methyl)benzamide], which IC50 is on record?
A: 33.6 nM

Q: With `Cc1c(C(=O)NC(c2ccccc2)C23CCC(CC2)N3C)cccc1C(F)(F)F` (centres unmarked) [Example 16, 2-methyl-N-((7-methyl-7-azabicyclo[2.2.1]heptan-1-yl)(phenyl)methyl)-3-(trifluoromethyl)benzamide] as the molecule, how does the IC50 read?
A: 18.6 nM

Q: How did the IC50 turn out when `CN1C2CCC1(C(NC(=O)c1cccc(C(F)(F)F)c1Cl)c1ccccc1)CC2` (centres unmarked) [Example 17, 2-chloro-N-((7-methyl-7-azabicyclo[2.2.1]heptan-1-yl)(phenyl)methyl)-3-(trifluoromethyl)benzamide] was run?
A: 17.9 nM

same assay, conditions: Table 2, unit from table title

Q: `Cc1cccc(C)c1C(=O)NC(c1cccc(F)c1)C12CCC(CC1)N2C` (single isomer, unassigned) [Example 45] was tested. Which IC50 did it give?
A: 175 nM

Q: `Cc1cccc(C)c1C(=O)NC(c1cccc(F)c1)C12CCC(CC1)N2C` (single isomer, unassigned) [Example 46] was tested. Which IC50 did it give?
A: 2 nM

Q: Which IC50 does the source give for `Cc1cccc(C)c1C(=O)NC(c1ccc(F)cc1)C12CCC(CC1)N2C` (single isomer, unassigned) [Example 47] here?
A: 2 nM

Q: For `CSc1ncccc1C(=O)NC(c1ccccc1)C12CCC(CC1)N2C(C)C` (single isomer, unassigned) [Example 53], which IC50 is on record?
A: 24 nM

Q: `CC(C)N1C2CCC1(C(NC(=O)c1c(Cl)cncc1Cl)c1ccccc1)CC2` (single isomer, unassigned) [Example 54] was tested. Which IC50 did it give?
A: 100 nM

Q: For `Cc1ccccc1C(=O)NC(c1ccccc1)C12CCC(CC1)N2C` (single isomer, unassigned) [Example 59], which IC50 is on record?
A: 38 nM

Q: `Cc1cc(F)ccc1C(=O)NC(c1ccccc1)C12CCC(CC1)N2C` (single isomer, unassigned) [Example 62] was tested. Which IC50 did it give?
A: 48 nM

Q: For `Cc1c(F)cccc1C(=O)NC(c1ccccc1)C12CCC(CC1)N2C` (single isomer, unassigned) [Example 63], which IC50 is on record?
A: 76 nM

Q: How did the IC50 turn out when `Cc1ccc(F)cc1C(=O)NC(c1ccccc1)C12CCC(CC1)N2C` (single isomer, unassigned) [Example 64] was run?
A: 125 nM

Q: How did the IC50 turn out when `CCN1C2CCC1(C(NC(=O)c1cccnc1SC)c1ccccc1)CC2` (single isomer, unassigned) [Example 73] was run?
A: 46 nM

Q: How did the IC50 turn out when `Cc1cccc(C)c1C(=O)NC(c1cccnc1)C12CCC(CC1)N2C` (single isomer, unassigned) [Example 74] was run?
A: < 3 nM

Q: `Cc1cccc(C)c1C(=O)NC(c1cccc(F)c1)C12CCC(CC1)N2` (single isomer, unassigned) [Example 75] was tested. Which IC50 did it give?
A: 7 nM

Q: `Cc1cccc(C)c1C(=O)NC(c1cccc(F)c1)C12CCC(CC1)N2` (single isomer, unassigned) [Example 76] was tested. Which IC50 did it give?
A: 297 nM

Q: How did the IC50 turn out when `Cc1ccc(C(NC(=O)c2c(C)cccc2C)C23CCC(CC2)N3C)cn1` (single isomer, unassigned) [Example 77] was run?
A: 71 nM

Q: `Cc1cc(C(NC(=O)c2c(C)cccc2C)C23CCC(CC2)N3C)ccn1` (single isomer, unassigned) [Example 85] was tested. Which IC50 did it give?
A: 23 nM

Q: `Cc1ccc(C(NC(=O)c2c(C)cccc2C)C23CCC(CC2)N3C)o1` (single isomer, unassigned) [Example 87] was tested. Which IC50 did it give?
A: 14 nM

Q: How did the IC50 turn out when `Cc1ccc(C(NC(=O)c2c(C)cccc2C)C23CCC(CC2)N3C)o1` (single isomer, unassigned) [Example 91] was run?
A: 344 nM

Q: For `CSc1ncccc1C(=O)NC(c1ccncc1)C12CCC(CC1)N2C1CCC1` (single isomer, unassigned) [Example 101], which IC50 is on record?
A: 160 nM

Q: How did the IC50 turn out when `CN1C2CCC1(C(NC(=O)c1cccc(C(F)(F)F)c1Cl)c1ccccc1)CC2` (centres unmarked) [Example 20] was run?
A: 26 nM

Q: How did the IC50 turn out when `Cc1cccc(C)c1C(=O)NC(c1ccccc1)C12CCC(CC1)N2CC(C)C` (centres unmarked) [Example 22] was run?
A: 13 nM

Q: With `COCCN1C2CCC1([C@H](NC(=O)c1c(C)cccc1C)c1ccccc1)CC2` [Example 24] as the molecule, how does the IC50 read?
A: 22 nM

Q: Which IC50 does the source give for `Cc1cccc(C)c1C(=O)N[C@H](c1ccccc1)C12CCC(CC1)N2Cc1ccccc1` [Example 25] here?
A: 174 nM

Q: `Cc1cccc(C)c1C(=O)N[C@H](c1ccccc1)C12CCC(CC1)N2CC(C)C` [Example 26] was tested. Which IC50 did it give?
A: 21 nM

Q: How did the IC50 turn out when `CCCCN1C2CCC1([C@H](NC(=O)c1c(C)cccc1C)c1ccccc1)CC2` [Example 27] was run?
A: 11 nM

Q: Which IC50 does the source give for `COCCCN1C2CCC1([C@H](NC(=O)c1c(C)cccc1C)c1ccccc1)CC2` [Example 28] here?
A: 12 nM

Q: Which IC50 does the source give for `Cc1cccc(C)c1C(=O)N[C@H](c1ccccc1)C12CCC(CC1)N2CC1CCC1` [Example 29] here?
A: 9 nM

Q: Which IC50 does the source give for `Cc1cccc(C)c1C(=O)N[C@H](c1ccc(F)cc1)C12CCC(CC1)N2` [Example 30] here?
A: 93 nM

Q: How did the IC50 turn out when `Cc1cccc(C)c1C(=O)N[C@H](c1ccccc1)C12CCC(CC1)N2CCO` [Example 34] was run?
A: < 1.28 nM
